# Like-named read-outs stand apart in the source and are kept apart here.
# Key:
# [1] = test system: anxiety (mice); conditions: rodents; Crawley / Jones; cited from earlier work
# [2] = test system: CCK-A and CCK-B receptors; conditions: cited from earlier work
# [3] = test system: humans; conditions: cited from earlier work
# [4] = test system: CCK-B receptors; conditions: cited from earlier work
# [5] = test system: CCK-A receptors; conditions: cited from earlier work
# [6] = test system: exploratory behavior of the rat; assay: Exploratory behavior in automated activity cages, novel environment; type: in vivo, rat (Male Sprague Dawley); conditions: CCK-8 0.5-16 μg/kg i.p., 30 minutes; F(6,87)=3.21 (p<0.01)
# Experimental: B. The effects of CCK-8 and compound A on the exploratory behavior of the rat were examined in automated activity cages and by direct observation. It is known that exogenous CCK-8 decreases exploratory behavior in rats in a novel environment by accelerating the process of habituation. [See Crawley, Pharm. Biochem & Behav. 20, 23-27 (1984).]
# Expt 1. Male Sprague Dawley rats were injected ([…].) with CCK-8 and immediately placed in automated activity cages. Activity was measured for 30 minutes past injection.
# Expt 2. Male SD rats were injected (s.c.) with the CCK antagonist compound A (0.0001-10 mg/kg) and immediately placed in the automated activity cages.
# [7] = test system: exploratory behavior of the rat; conditions: McElroy et al.; cited from earlier work
# [8] = Deschodt-Lanckman et al.; cited from earlier work
Compound,Receptor selectivity as agonist [2],Affinity for CCK-B receptors [4],Affinity for CCK-A receptors [5],also measured
CN1C(=O)CN=C(c2ccccc2)c2cc(Cl)ccc21 [diazepam],,,,Preference of the animal for the black dimly lit side [1]: decrease the preference of the animal for the black dimly lit side of the apparatus
CSCC[C@H](NC(=O)[C@@H](N)Cc1c[nH]c2ccccc12)C(=O)N[C@@H](CC(=O)O)C(=O)N[C@@H](Cc1ccccc1)C(N)=O [CCK-4],preferential CCK-B receptor agonist,high affinity,lower affinity,"Effect in humans (panic, gastrointestinal effects) ([3]; in vivo): induce panic"
"CCK-8: exogenous CCK-8, equipotent as an agonist at CCK-A and CCK-B receptors",equipotent as an agonist at CCK-A and CCK-B receptors,,,"Effect in humans (panic, gastrointestinal effects) ([3]; studies in humans): induced gastrointestinal effects but not panic symptoms; Locomotor activity [6]: dose-dependently decreased locomotor activity"
CNC1=Nc2ccc(Cl)cc2C(c2ccccc2)=[N+]([O-])C1 [chlordiazepoxide],,,,Spontaneous locomotor activity in rats in a novel environment [7]: increases spontaneous locomotor activity
"CSCC[C@H](NC(=O)[C@H](Cc1ccc(OS(=O)(=O)O)cc1)NC(=O)[C@@H](N)CC(=O)O)C(=O)NCC(=O)N[C@@H](Cc1c[nH]c2ccccc12)C(=O)N[C@@H](CCSC)C(=O)N[C@@H](CC(=O)O)C(=O)N[C@@H](Cc1ccccc1)C(N)=O [CCK-8s, H-Asp-Tyr(SO3 H)-Met-Gly-Trp-Met-Asp-Phe-NH2]",,high affinity,high affinity,Half-life [8]: less than 1 hour

# Source: patent US5206234A, “Benzolactam analogs as antagonists of CCK” (priority 1991, dated 1993)
